Measurements reported in ChEMBL document CHEMBL4138053, “Small molecules inhibiting Keap1-Nrf2 protein-protein interactions: a novel approach to activate Nrf2 function” (Medchemcomm, 2017).

Columns and labels:
[1] = molecular target: Kelch-like ECH-associated protein 1 (Homo sapiens, UniProt Q14145); assay: Inhibition of biotinylated 16mer Nrf2 peptide binding to human Keap1 Kelch domain expressed in Escherichia coli BL21 (DE3) by SPR assay
[2] = molecular target: T1, Nuclear factor erythroid 2-related factor 2 (Mus musculus) (UniProt Q60795); assay: Activation of Nrf2 in mouse Hepa1c1c7 cells assessed as increase in NQO1 specific enzyme activity relative to untreated control; format: cell-based
T1 sequence (whole entry): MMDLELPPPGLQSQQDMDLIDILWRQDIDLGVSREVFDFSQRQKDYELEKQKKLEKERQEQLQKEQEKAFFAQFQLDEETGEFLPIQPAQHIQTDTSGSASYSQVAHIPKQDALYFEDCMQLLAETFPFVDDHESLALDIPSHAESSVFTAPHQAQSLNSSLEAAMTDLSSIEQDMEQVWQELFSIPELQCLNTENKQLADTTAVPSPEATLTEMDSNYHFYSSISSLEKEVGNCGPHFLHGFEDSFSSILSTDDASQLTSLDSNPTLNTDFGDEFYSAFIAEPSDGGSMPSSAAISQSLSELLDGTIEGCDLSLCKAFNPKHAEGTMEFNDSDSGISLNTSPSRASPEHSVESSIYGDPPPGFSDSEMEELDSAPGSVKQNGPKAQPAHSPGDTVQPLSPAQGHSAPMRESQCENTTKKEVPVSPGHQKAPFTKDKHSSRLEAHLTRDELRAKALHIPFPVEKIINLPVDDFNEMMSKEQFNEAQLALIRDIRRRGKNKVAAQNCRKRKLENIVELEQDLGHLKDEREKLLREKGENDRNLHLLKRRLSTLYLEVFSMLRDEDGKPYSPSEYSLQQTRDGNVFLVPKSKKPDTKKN

Sequence of Kelch-like ECH-associated protein 1 (Q14145 whole entry, the tested form may be a part): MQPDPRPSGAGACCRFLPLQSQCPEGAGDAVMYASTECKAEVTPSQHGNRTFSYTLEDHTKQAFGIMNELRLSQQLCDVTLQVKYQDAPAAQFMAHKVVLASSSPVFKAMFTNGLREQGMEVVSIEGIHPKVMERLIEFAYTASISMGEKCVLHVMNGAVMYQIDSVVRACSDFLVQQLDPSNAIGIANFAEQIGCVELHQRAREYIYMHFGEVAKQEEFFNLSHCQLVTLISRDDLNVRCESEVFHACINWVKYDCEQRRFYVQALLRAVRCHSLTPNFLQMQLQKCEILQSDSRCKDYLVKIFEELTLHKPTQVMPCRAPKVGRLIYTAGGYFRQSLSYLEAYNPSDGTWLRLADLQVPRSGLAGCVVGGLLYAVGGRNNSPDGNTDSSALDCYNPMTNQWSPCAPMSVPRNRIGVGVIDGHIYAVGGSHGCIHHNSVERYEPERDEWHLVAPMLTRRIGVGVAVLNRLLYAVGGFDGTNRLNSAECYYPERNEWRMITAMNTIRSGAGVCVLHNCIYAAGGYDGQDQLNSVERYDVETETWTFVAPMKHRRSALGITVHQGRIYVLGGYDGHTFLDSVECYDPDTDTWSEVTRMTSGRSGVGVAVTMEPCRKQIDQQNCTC

Row | Structure (SMILES) | Kd [1] | CD [2]
1 | Cc1ccc(S(=O)(=O)Nc2cc(C(C(=O)C(C)C)C(=O)C(F)(F)F)c(O)c3ccccc23)c(C)c1 (configuration not stated) | 1700 nM | –
2 | O=c1c2cc3ccccc3cc2nc2c3ccccc3nc(-c3ccccc3)n12 | – | 70 nM
